The source of these data is patent publication US10792263B2, “Method of treating an individual having a microbial infection” (Sun Yat-sen University, priority 2012, dated 2020).

For assay [1], the system named is E. coli. The experiment in a line: Human serum bactericidal assay with threonine, OD600 survival rate. The format is cell-based, Escherichia coli. As to conditions: 2 hours. As to the method: The prepared bacterial cells are divided to four groups. […] Absorbance is measured at 600 nm Survival rate is calculated as follows: the OD in groups after treatment with serum, threonine or serum plus threonine/the OD in the control group treated with saline×100%. […] Certain bactericidal effect is detected in the group with serum alone. Compared with the group with serum alone, the group with serum plus threonine has a significant 1.5-fold increase of bactericidal effect.

Assay [2] has as its system E. coli K12 BW25113. The following applies: mice, 6 times, blood at 48 hours. As to the method: (§1) A total of 15 6-week-old mice (purchased from the Laboratory Animals Center of Sun Yat-sen University) are randomly divided into three groups: saline control group and two treatment groups are administered with 3.25 or 6.5 mg glycine/mouse. The compound is intravenously administered at 3.25 or 6.5 mg glycine/injection/mouse every 12 hours and 6 times in total. Mice are intravenously injected 1×10^6 E. coli K12 BW25113 or E. coli clinical isolate Y17 at 12 hours after the last administration of glycine. Blood is withdrawn from mouse tail vein at 48 hours. The clearance of bacteria is determined by plate counting.

Assay [3] has as its system E. coli clinical isolate Y17. As to conditions: mice, 6 times, blood at 48 hours. The procedure: as §1
Assay [4] has as its system E. coli K12 BW25113, E. coli clinical strain Y17, beta-hemolytic Streptococcus, Vibro alginolyticus, Vibro parahaemolyticus, Pseudomonas aeruginosa and …. The following applies: 125-175 μL human serum plus 100-150 mM glycine, 4 hours. The procedure: (§2) Sample preparation: Single colonies of the parent strain E. coli K12 BW25113 are picked from Luria-Bertani (LB) agar plate, inoculated into 5 mL LB medium and incubated with shaking at 200 rpm, 37° C. for 16 hours. Cultures are then diluted 1:100 (v/v) in 200 mL fresh LB medium and grow to an OD600 of 1.0 at 37° C. with shaking. Cells are collected by centrifugation at 8000 rpm for 10 minutes at 4° C. and washed with 0.85% saline once.

For assay [5], the system named is E. coli K12 BW25113. The following applies: for increase of bactericidal effect, serum plus glycine versus serum: 100 μL human serum plus 100 mM glycine. The procedure:
as §2
To understand whether glycine enhances the bactericidal effect of serum, experiments are carried out in 3 scenarios: the same volume of human serum mixed with different concentrations of glycine, different volumes of human serum mixed with the same concentration of glycine, and these mixtures are treated for different incubation periods.
Bacterial cells are prepared according to Example 1.1. Glycine is added to a final concentration of 0, 5, 10, 30, 50 and 100 mM and the mixtures are cultured for 1 hour at 37° C. with shaking at 200 rpm. Then 100 μL of human serum or saline are added as test and control groups, respectively. Bacteria are cultured for 2 hours and collected by centrifugation. Cells are resuspended with 1 mL of saline. Live bacterial cells are counted on LB agar plate. Survival rate is calculated as follows: number of live bacteria cells after treatment with different concentrations of glycine supplementation/number of live bacteria cells after treatment with saline×100%.
Bacterial samples are prepared and added with 100 mM glycine and cultured for 1 hour at 37° C. with shaking at 200 rpm. Then 0, 20, 40, 60, 80 or 100 μL human serum is added and cultured for 2 hours at 37° C. with shaking at 200 rpm. The controls are not mixed with glycine but only with different volumes of human serum. Bacteria are collected by centrifugation and resuspended with 1 mL of saline for spot-plate counting. The survival rate is calculated as follows: the number of live bacteria cells after treatment with glycine plus different volumes of human serum/the number of live cells after treatment with only human serum×100%.
The prepared bacterial samples are divided into 4 groups and treated separately as follows: with 100 mM glycine, 100 μL human serum, 100 μL human serum plus 100 mM glycine or saline alone as control. The mixtures are cultured for 0.5, 1, 2, 3, and 4 hours at 37° C. with shaking at 200 rpm. Bacteria are collected by centrifugation and resuspended in 1 mL saline. Bacteria are counted using LB agar plates. The survival rate is calculated as follows: the number of live bacteria after treatment with serum and/or glycine in different times/the number of live bacteria in the saline control group×100%.

Assay [6] has as its system E. coli K12 BW25113, E. coli clinical strain Y17, Vibro alginolyticus, Vibro parahaemolyticus, Pseudomonas aeruginosa and Staphylococcus aureus. The following applies: 100 μL serum/plasma of different animals plus 100 mM glycine, 4 hour. The procedure:
as §2
A variety of bacteria (E. coli K12 BW25113, E. coli clinical strain Y17, Vibro alginolyticus, Vibro parahaemolyticus, Pseudomonas aeruginosa and Staphylococcus aureus) are cultured as described in Example 1.1. Aliquots of 3 mL bacteria are collected with OD600 of 1.0. Then, 100 μL serum/plasma from different animals or 100 μL serum/plasma of different animals plus 100 mM glycine are added and 100 mM glycine alone is used a control. Cells are cultured for 4 hour at 37° C. with shaking at 200 rpm. Bacteria are resuspended with 1 mL of saline. Absorbance is measured at 600 nm.

Setting [7] is: 3.25 mg glycine/injection i.v. every 12 hours.
Setting [8] is: 6.5 mg glycine/injection i.v. every 12 hours.

Read-outs that look alike come from different tables or passages of the source.

As to `C[C@@H](O)[C@H](N)C(=O)O` [threonine], in assay [1] (100 mM threonine without serum), the “bactericidal effect of threonine alone” value is “no bactericidal effect”. In assay [1] (100 μL human serum plus 100 mM threonine), the “increase of bactericidal effect, serum plus threonine versus serum alone” value is listed as 1.5 fold.

Consider `NCC(=O)O` [glycine], for which the Clearance rate was 89.32% in assay [2] (setting [7]), 96.85% in assay [2] (setting [8]), 32.95% in assay [3] (setting [7]) and 52.53% in assay [3] (setting [8]). The “increase of serum bactericidal effect, lower bound over all bacteria tested” value in assay [4] is “more than 1 fold”. Also, the “increase of serum bactericidal effect, maximum over all bacteria tested” value in assay [4] is given as “up to 4.13 fold”. In addition, the “increase of the serum bactericidal effect” value in assay [5] (5 mM glycine, 1 h preincubation, then 100 μL human serum for 2 hours, 37° C.) is 1.36 fold. For the same molecule, the “elevation of serum bactericidal effect, serum volume series” value in assay [5] (100 mM glycine plus 100 μL human serum, 2 hours, versus human serum only) stood at 86 fold. Besides, the “bactericidal effect of glycine alone” value in assay [5] (100 mM glycine without serum, 0.5 to 4 hours) is reported as “no bactericidal effect”. The “increase of the serum bactericidal effect (highest effect)” value in assay [5] (100 mM glycine, 1 h preincubation, then 100 μL human serum for 2 hours, 37° C.) is recorded as roughly 86 fold. Besides, the “increase of bactericidal effect, serum plus glycine versus serum” value in assay [5] (after 0.5 hours) came out at 2 fold; in assay [5] (after 1 hour), 77 fold; in assay [5] (after 4 hours), 120 fold. In assay [6], the “increase of bactericidal effect of animal serum/plasma, maximum” value is given as roughly 10 fold. Also, the “increase of bactericidal effect of animal serum/plasma, minimum” value in assay [6] was no less than 1.5 fold.
